IC50 data for 35 compounds are collected here from patent US20230295119A1, “SUBSTITUTED PYRIDINES FOR THE TREATMENT OF INFLAMMATORY DISEASES” (GOSSAMER BIO SERVICES, INC., priority 2020, published 2023).

Experiment [1] concerns the target TYK2 JH2 domain (Homo sapiens (Human), UniProt P29597). Nature of the experiment: TYK2 JH2 NanoBRET assay. The experiment is classed as binding. To be noted: Table 20, read-out: TYK2 IC50. In short, it runs like this: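 Tracer displacement measured by BRET ratio (acceptor over donor) in live HEK293T cells transfected with a NanoLuc-tagged TYK2 JH2 construct; cells co-exposed to test compound and 0.5 µM final K10 tracer for 2 h before substrate/extracellular inhibitor addition.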
In general terms: In BRET a luciferase serves as donor, and the signal depends on an acceptor being close.

For experiment [2], the target named is human JAK1 (Homo sapiens (Human), UniProt P23458). Nature of the experiment: JAK1 TR-FRET kinase assay. The format is biochemical. To be noted: TR-FRET, JAK1 2.5 nM. In general terms: Time-resolved FRET reads energy transfer from a long-lived donor to a nearby acceptor.
Experiment [3] has as its target human JAK2 (Homo sapiens (Human), UniProt O60674). Nature of the experiment: JAK2 TR-FRET kinase assay. The experiment is classed as biochemical. The settings on record: JAK2 0.025 nM.
In experiment [4] the target is human JAK3 (Homo sapiens (Human), UniProt P52333). Nature of the experiment: JAK3 TR-FRET kinase assay. The format is biochemical. To be noted: JAK3 0.0125 nM.
Chain of human JAK3 (P52333 whole entry): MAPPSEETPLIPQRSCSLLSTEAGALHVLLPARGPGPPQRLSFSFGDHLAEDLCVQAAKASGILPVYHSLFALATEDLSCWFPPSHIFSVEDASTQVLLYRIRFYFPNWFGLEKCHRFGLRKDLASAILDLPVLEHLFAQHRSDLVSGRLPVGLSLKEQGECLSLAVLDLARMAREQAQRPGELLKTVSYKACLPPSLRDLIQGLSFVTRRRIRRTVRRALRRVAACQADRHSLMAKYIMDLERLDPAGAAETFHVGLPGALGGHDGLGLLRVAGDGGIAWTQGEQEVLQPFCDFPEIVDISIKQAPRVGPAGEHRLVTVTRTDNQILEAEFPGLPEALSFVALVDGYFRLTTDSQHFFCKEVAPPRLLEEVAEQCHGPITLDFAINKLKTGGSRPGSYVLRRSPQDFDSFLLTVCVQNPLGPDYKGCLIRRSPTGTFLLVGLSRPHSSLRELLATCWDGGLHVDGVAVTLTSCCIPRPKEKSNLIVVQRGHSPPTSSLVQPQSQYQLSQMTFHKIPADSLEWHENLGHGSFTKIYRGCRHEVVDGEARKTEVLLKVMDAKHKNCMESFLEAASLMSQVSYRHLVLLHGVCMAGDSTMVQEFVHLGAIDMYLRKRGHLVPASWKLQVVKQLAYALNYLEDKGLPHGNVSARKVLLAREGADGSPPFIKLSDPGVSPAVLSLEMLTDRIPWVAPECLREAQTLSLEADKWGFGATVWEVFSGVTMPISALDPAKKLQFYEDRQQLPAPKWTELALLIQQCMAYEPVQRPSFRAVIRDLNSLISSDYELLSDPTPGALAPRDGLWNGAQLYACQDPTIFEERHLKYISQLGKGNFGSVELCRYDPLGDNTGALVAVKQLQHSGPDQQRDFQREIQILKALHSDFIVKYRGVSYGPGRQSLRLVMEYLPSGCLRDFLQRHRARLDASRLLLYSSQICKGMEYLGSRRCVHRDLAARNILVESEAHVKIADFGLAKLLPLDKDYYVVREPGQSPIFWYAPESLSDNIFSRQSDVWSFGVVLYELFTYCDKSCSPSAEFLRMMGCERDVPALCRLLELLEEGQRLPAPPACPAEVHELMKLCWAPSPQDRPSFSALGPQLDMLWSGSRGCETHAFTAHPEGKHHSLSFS

Chain of human JAK2 (O60674 whole entry): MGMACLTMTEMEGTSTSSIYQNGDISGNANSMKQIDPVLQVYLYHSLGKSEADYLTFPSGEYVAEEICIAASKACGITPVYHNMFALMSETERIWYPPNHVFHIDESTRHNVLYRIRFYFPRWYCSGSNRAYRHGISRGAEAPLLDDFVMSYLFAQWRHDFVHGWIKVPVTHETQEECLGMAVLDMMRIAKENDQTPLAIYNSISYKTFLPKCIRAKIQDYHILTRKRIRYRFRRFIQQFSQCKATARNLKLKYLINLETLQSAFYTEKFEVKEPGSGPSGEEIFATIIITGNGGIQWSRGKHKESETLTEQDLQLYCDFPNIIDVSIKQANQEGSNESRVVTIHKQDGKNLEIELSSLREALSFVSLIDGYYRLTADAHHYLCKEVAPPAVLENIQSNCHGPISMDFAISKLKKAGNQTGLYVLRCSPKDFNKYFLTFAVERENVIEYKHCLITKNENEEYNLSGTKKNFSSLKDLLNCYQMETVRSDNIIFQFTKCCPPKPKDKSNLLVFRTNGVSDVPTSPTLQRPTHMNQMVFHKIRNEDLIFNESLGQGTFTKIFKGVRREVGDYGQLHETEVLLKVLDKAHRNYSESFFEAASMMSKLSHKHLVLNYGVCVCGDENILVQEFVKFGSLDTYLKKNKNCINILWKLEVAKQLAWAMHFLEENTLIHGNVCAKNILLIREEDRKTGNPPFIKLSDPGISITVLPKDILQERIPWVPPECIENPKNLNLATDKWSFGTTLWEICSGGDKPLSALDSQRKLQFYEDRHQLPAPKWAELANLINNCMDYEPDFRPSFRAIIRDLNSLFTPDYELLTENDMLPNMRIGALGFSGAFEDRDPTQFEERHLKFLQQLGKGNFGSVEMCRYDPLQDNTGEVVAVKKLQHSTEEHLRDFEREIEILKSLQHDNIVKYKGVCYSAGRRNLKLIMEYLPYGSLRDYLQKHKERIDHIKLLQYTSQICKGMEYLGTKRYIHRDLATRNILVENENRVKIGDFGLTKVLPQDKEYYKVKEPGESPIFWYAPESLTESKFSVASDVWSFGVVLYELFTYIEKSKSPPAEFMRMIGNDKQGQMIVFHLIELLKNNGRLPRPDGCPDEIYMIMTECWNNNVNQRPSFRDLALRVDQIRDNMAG
Chain of human JAK1 (P23458 whole entry): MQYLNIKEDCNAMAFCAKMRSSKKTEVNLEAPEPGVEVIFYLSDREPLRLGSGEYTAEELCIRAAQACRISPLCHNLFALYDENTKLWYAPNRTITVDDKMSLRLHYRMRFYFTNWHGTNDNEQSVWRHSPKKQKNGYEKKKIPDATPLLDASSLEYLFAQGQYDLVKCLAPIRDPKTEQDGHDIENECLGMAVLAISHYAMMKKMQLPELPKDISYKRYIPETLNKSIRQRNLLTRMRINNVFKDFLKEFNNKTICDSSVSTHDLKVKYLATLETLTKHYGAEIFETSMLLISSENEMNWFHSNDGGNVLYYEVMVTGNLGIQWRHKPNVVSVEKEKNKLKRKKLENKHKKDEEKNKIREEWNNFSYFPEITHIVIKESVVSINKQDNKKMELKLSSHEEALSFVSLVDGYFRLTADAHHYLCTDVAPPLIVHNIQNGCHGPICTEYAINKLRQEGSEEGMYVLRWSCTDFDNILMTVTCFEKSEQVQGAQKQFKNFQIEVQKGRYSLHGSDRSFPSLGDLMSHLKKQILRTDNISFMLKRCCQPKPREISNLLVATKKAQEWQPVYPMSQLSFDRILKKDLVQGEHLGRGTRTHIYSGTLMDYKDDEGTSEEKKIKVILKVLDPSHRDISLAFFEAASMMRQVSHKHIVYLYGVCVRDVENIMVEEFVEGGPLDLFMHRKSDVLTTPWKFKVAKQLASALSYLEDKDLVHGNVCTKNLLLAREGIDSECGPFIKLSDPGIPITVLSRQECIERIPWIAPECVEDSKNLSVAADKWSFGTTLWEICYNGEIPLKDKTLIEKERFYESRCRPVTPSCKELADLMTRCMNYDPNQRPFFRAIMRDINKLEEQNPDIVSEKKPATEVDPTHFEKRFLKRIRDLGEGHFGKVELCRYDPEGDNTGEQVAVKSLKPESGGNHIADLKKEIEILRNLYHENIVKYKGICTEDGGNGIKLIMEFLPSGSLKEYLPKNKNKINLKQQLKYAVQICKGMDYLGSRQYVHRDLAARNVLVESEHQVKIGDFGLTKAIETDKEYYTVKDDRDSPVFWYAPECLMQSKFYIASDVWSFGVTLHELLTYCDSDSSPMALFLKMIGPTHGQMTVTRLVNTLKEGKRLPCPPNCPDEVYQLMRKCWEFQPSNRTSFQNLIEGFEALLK
Chain of TYK2 JH2 domain (P29597 589-875): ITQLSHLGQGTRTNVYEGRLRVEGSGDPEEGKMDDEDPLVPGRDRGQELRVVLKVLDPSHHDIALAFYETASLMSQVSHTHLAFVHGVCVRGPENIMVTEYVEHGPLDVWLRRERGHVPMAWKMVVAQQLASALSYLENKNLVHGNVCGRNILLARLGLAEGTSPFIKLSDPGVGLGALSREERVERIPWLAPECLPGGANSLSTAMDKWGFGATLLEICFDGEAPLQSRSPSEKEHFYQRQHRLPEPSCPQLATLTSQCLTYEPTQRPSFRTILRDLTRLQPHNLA

One may read the IC50 as the concentration at which inhibition is half-maximal. Take `CCC(=O)c1cnc(Nc2ncc(OCC3COC3)cc2F)cc1Nc1cccc(-c2ncn(C)n2)c1OC` [Compound 18CCCC]: the IC50 in experiment [1] is 50 to 500 nM; in experiment [2], at least 500 nM; in experiment [3], at least 500 nM; in experiment [4] it was at least 500 nM.
With `CCC(=O)c1cnc(Nc2cnc(O[C@@H]3CCN(C)C3)cn2)cc1Nc1nccc(-c2ncn(C)n2)c1OC` [Compound 18CCC], the IC50 in experiment [1], in experiment [2], in experiment [3] and in experiment [4] was at least 500 nM in each case.
As for `CCC(=O)c1cnc(Nc2ccc(OCCN3CCCC3)nn2)cc1Nc1cccc(-c2ncn(C)n2)c1OC` [Compound 18CC], the IC50 in experiment [1] is under 5 nM; in experiment [2] it was at least 500 nM; in experiment [3], at least 500 nM; in experiment [4], at least 500 nM.
For the compound `COc1c(Nc2cc(Nc3ccc(OCCCO)cn3)ncc2C(=O)C2CC2)cccc1-c1ncn(C)n1` [Compound 18C], the IC50 was under 5 nM in experiment [1], at least 500 nM in experiment [2], at least 500 nM in experiment [3] and at least 500 nM in experiment [4].
Take `CCC(=O)c1cnc(Nc2ccc(OC3CN(C)C3)nn2)cc1Nc1cccc(-c2ncn(C)n2)c1OC` [Compound 18DDDD]: the IC50 in experiment [1] was 5 to 50 nM; in experiment [2], at least 500 nM; in experiment [3] it was at least 500 nM; in experiment [4], at least 500 nM.
Consider `CCC(=O)c1cnc(Nc2ccc(OCCCN3CCCC3)nn2)cc1Nc1cccc(-c2ncn(C)n2)c1OC` [Compound 18DD], for which the IC50 in experiment [1] was under 5 nM; in experiment [2] it was at least 500 nM; in experiment [3], at least 500 nM; in experiment [4], at least 500 nM.
Consider `CCC(=O)c1cnc(Nc2ccc(OCCOC)cn2)cc1Nc1cccc(-c2ncn(C)n2)c1OC` [Compound 18D], for which the IC50 in experiment [1] was 5 to 50 nM; in experiment [2], at least 500 nM; in experiment [3] it was at least 500 nM; in experiment [4] it was 50 to 500 nM.
For `CCC(=O)c1cnc(Nc2cnc(OC3CCN(C)CC3)cn2)cc1Nc1cccc(-c2ncn(C)n2)c1OC` [Compound 18EEE], the 50% inhibitory concentration (IC50) was under 5 nM in experiment [1], at least 500 nM in experiment [2], at least 500 nM in experiment [3] and at least 500 nM in experiment [4].
Consider `CCC(=O)c1cnc(Nc2ccc(OC3CCN(C)CC3)nn2)cc1Nc1cccc(-c2ncn(C)n2)c1OC` [Compound 18EE], for which the IC50 in experiment [1] is under 5 nM; in experiment [2], at least 500 nM; in experiment [3], at least 500 nM; in experiment [4], at least 500 nM.
For the compound `CCC(=O)c1cnc(Nc2ccc(OCC(C)(C)O)cn2)cc1Nc1cccc(-c2ncn(C)n2)c1OC` [Compound 18E], the IC50 is under 5 nM in experiment [1], at least 500 nM in experiment [2], 50 to 500 nM in experiment [3] and 50 to 500 nM in experiment [4].
With `CCC(=O)c1cnc(Nc2ccc(O[C@@H]3CCN(C)C3)nn2)cc1Nc1cccc(-c2ncn(C)n2)c1OC` [Compound 18FF], the IC50 is 5 to 50 nM in experiment [1], at least 500 nM in experiment [2], at least 500 nM in experiment [3] and at least 500 nM in experiment [4].
As to `CCC(=O)c1cnc(Nc2ccc(OC[C@@H](O)CO)cn2)cc1Nc1cccc(-c2ncn(C)n2)c1OC` [Compound 18F], the IC50 was 5 to 50 nM in experiment [1], at least 500 nM in experiment [2], at least 500 nM in experiment [3] and 50 to 500 nM in experiment [4].
In the case of `CCC(=O)c1cnc(Nc2cnc(OCCN3CCOCC3)cn2)cc1Nc1cccc(-c2ncn(C)n2)c1OC` [Compound 18GGG], the IC50 in experiment [1] is 5 to 50 nM; in experiment [2], at least 500 nM; in experiment [3] it was at least 500 nM; in experiment [4] it was at least 500 nM.
`CCC(=O)c1cnc(Nc2ccc(O[C@H]3CCN(C)C3)nn2)cc1Nc1cccc(-c2ncn(C)n2)c1OC` [Compound 18GG]: the IC50 is 5 to 50 nM in experiment [1], at least 500 nM in experiment [2], at least 500 nM in experiment [3] and at least 500 nM in experiment [4].
In the case of `CCC(=O)c1cnc(Nc2ccc(OC[C@H](O)CO)cn2)cc1Nc1cccc(-c2ncn(C)n2)c1OC` [Compound 18G], the IC50 in experiment [1] was 5 to 50 nM; in experiment [2], at least 500 nM; in experiment [3], at least 500 nM; in experiment [4] it was at least 500 nM.
For the compound `CCC(=O)c1cnc(Nc2cnc(OCCn3cnc(C)c3)cn2)cc1Nc1cccc(-c2ncn(C)n2)c1OC` [Compound 18HHH], the half-inhibitory concentration (IC50) in experiment [1] was 5 to 50 nM; in experiment [2], at least 500 nM; in experiment [3], at least 500 nM; in experiment [4], at least 500 nM.
On to `CCC(=O)c1cnc(Nc2ccnc(OCCCN(C)C)n2)cc1Nc1cccc(-c2ncn(C)n2)c1OC` [Compound 18HH], for which the IC50 was under 5 nM in experiment [1], at least 500 nM in experiment [2], at least 500 nM in experiment [3] and at least 500 nM in experiment [4].
As for `CCC(=O)c1cnc(Nc2ccc(OC(CO)CO)cn2)cc1Nc1cccc(-c2ncn(C)n2)c1OC` [Compound 18H], the IC50 in experiment [1] is 5 to 50 nM; in experiment [2], at least 500 nM; in experiment [3], at least 500 nM; in experiment [4], at least 500 nM.
`CCC(=O)c1cnc(Nc2cnc(OCCn3ccnc3C)cn2)cc1Nc1cccc(-c2ncn(C)n2)c1OC` [Compound 18III]: the IC50 in experiment [1] was 5 to 50 nM; in experiment [2] it was at least 500 nM; in experiment [3] it was at least 500 nM; in experiment [4], at least 500 nM.
On to `CCC(=O)c1cnc(Nc2ccnc(OC3CCN(C)CC3)n2)cc1Nc1cccc(-c2ncn(C)n2)c1OC` [Compound 18II], for which the IC50 is 5 to 50 nM in experiment [1], at least 500 nM in experiment [2], at least 500 nM in experiment [3] and at least 500 nM in experiment [4].
For `COc1c(Nc2cc(Nc3ccc(OC[C@@H](O)CO)cn3)ncc2C(=O)C2CC2)cccc1-c1ncn(C)n1` [Compound 18I], the IC50 in experiment [1] is 5 to 50 nM; in experiment [2] it was at least 500 nM; in experiment [3] it was at least 500 nM; in experiment [4], at least 500 nM.
For the compound `CCC(=O)c1cnc(Nc2cnc(O[C@@H]3CCN(C)C3)c(C)n2)cc1Nc1cccc(-c2ncn(C)n2)c1OC` [Compound 18JJJ], the IC50 in experiment [1] was 5 to 50 nM; in experiment [2], at least 500 nM; in experiment [3] it was at least 500 nM; in experiment [4] it was at least 500 nM.
On to `CCC(=O)c1cnc(Nc2ccnc(OC3CN(C)C3)n2)cc1Nc1cccc(-c2ncn(C)n2)c1OC` [Compound 18JJ], for which the IC50 in experiment [1] was 5 to 50 nM; in experiment [2], at least 500 nM; in experiment [3], at least 500 nM; in experiment [4], at least 500 nM.
As to `COc1c(Nc2cc(Nc3ccc(OC[C@H](O)CO)cn3)ncc2C(=O)C2CC2)cccc1-c1ncn(C)n1` [Compound 18J], the IC50 is 5 to 50 nM in experiment [1], at least 500 nM in experiment [2], at least 500 nM in experiment [3] and at least 500 nM in experiment [4].
Take `CCC(=O)c1cnc(Nc2cnc(O[C@@H]3CCN(CC(F)F)C3)cn2)cc1Nc1cccc(-c2ncn(C)n2)c1OC` [Compound 18KKK]: the IC50 in experiment [1] was 5 to 50 nM; in experiment [2], at least 500 nM; in experiment [3], at least 500 nM; in experiment [4] it was at least 500 nM.
For `CCC(=O)c1cnc(Nc2ccnc(O[C@H]3CCN(C)C3)n2)cc1Nc1cccc(-c2ncn(C)n2)c1OC` [Compound 18KK], the IC50 in experiment [1] is 5 to 50 nM; in experiment [2], at least 500 nM; in experiment [3], at least 500 nM; in experiment [4], at least 500 nM.
Take `COc1c(Nc2cc(Nc3ccc(OC(CO)CO)cn3)ncc2C(=O)C2CC2)cccc1-c1ncn(C)n1` [Compound 18K]: the IC50 was 5 to 50 nM in experiment [1], at least 500 nM in experiment [2], at least 500 nM in experiment [3] and at least 500 nM in experiment [4].
With `CCC(=O)c1cnc(Nc2cnc(O[C@@H]3CCN(CC(F)(F)F)C3)cn2)cc1Nc1cccc(-c2ncn(C)n2)c1OC` [Compound 18LLL], the IC50 is 5 to 50 nM in experiment [1], at least 500 nM in experiment [2], at least 500 nM in experiment [3] and at least 500 nM in experiment [4].
On to `CCC(=O)c1cnc(Nc2ccnc(O[C@@H]3CCN(C)C3)n2)cc1Nc1cccc(-c2ncn(C)n2)c1OC` [Compound 18LL], for which the IC50 in experiment [1] was 5 to 50 nM; in experiment [2] it was at least 500 nM; in experiment [3], at least 500 nM; in experiment [4] it was at least 500 nM.
With `CCC(=O)c1cnc(Nc2ccc(OC(C)(C)C(=O)O)c(C)n2)cc1Nc1cccc(-c2ncn(C)n2)c1OC` [Compound 18L], the IC50 in experiment [1] was at least 500 nM; in experiment [2], at least 500 nM; in experiment [3], 50 to 500 nM; in experiment [4] it was 50 to 500 nM.
Consider `CCC(=O)c1cnc(Nc2cnc(O[C@@H]3C[C@H](C)N(C)C3)cn2)cc1Nc1cccc(-c2ncn(C)n2)c1OC` [Compound 18MMM], for which the IC50 in experiment [1] is 5 to 50 nM; in experiment [2] it was at least 500 nM; in experiment [3], at least 500 nM; in experiment [4], at least 500 nM.
Turning to `CCC(=O)c1cnc(Nc2cnc(OCCN)cn2)cc1Nc1cccc(-c2ncn(C)n2)c1OC` [Compound 18MM], the IC50 in experiment [1] was under 5 nM; in experiment [2] it was at least 500 nM; in experiment [3], at least 500 nM; in experiment [4], at least 500 nM.
Turning to `CCC(=O)c1cnc(Nc2ccc(OCCO)nn2)cc1Nc1cccc(-c2ncn(C)n2)c1OC` [Compound 18M], the IC50 in experiment [1] is under 5 nM; in experiment [2], at least 500 nM; in experiment [3] it was at least 500 nM; in experiment [4], at least 500 nM.
`[2H]C([2H])([2H])N1CC[C@@H](Oc2cnc(Nc3cc(Nc4cccc(-c5ncn(C)n5)c4OC)c(C(=O)CC)cn3)cn2)C1` [Compound 18NNN]: the IC50 is 5 to 50 nM in experiment [1], at least 500 nM in experiment [2], at least 500 nM in experiment [3] and at least 500 nM in experiment [4].
Regarding `CCC(=O)c1cnc(Nc2cnc(OCCNC)cn2)cc1Nc1cccc(-c2ncn(C)n2)c1OC` [Compound 18NN], the IC50 in experiment [1] was under 5 nM; in experiment [2], at least 500 nM; in experiment [3], at least 500 nM; in experiment [4], at least 500 nM.
